Laboratory results as given in the supplement of paper PMC11061612.

How the values were obtained:
[1] = test system: RH-1 (Ewing's Sarcoma); assay: Bliss excess, mean over the matrix (fraction); higher = more synergy
Outline: (§1)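 Bliss excess equals the observed combination effect minus the expected value EA + EB − EA·EB, where EA and EB are the effects of each agent alone. Combination Emax is the second-highest inhibition within the matrix. Inhibition was scaled from CellTiter-Glo 2.0 luminescence, with 0 set by vehicle wells and 1 by blank wells, after 72 hours of two-drug dosing of cells plated in 1536-well plates.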

[2] = test system: LS-513 (Colorectal Carcinoma); assay: as above
Outline: as §1

[3] = test system: CFPAC-1 (Pancreatic Carcinoma); assay: as above
Outline: as §1

[4] = test system: JiyoyeP-2003 (Burkitt's Lymphoma); assay: as above
Outline: as §1

[5] = test system: DSH1 (Bladder Carcinoma); assay: as above
Outline: as §1

[6] = test system: HPAC (Pancreatic Carcinoma); assay: as above
Outline: as §1

[7] = test system: COR-L95 (Small Cell Lung Carcinoma); assay: as above
Outline: as §1

[8] = test system: 697 (B-Lymphoblastic Leukemia); assay: as above
Outline: as §1

[9] = test system: KARPAS-620 (Plasma Cell Myeloma); assay: as above
Outline: as §1

[10] = test system: NCI-H1781 (Lung Adenocarcinoma); assay: combination Emax (second highest fraction inhibited in the dose matrix, 72 h); higher = more inhibition; extreme values may be limits of the assay
Outline: as §1

[11] = test system: HT-29 (Colorectal Carcinoma); assay: as above
Outline: as §1

[12] = test system: KM-H2 (Hodgkin's Lymphoma); assay: as above
Outline: as §1

[13] = test system: DB (B-Cell Non-Hodgkin's Lymphoma); assay: as above
Outline: as §1

[14] = test system: DSH1 (Bladder Carcinoma); assay: as above
Outline: as §1

[15] = test system: SW756 (Cervical Carcinoma); assay: as above
Outline: as §1

[16] = test system: MDA-MB-231 (Breast Carcinoma); assay: as above
Outline: as §1

[17] = test system: COR-L95 (Small Cell Lung Carcinoma); assay: as above
Outline: as §1

[18] = test system: DMS-273 (Small Cell Lung Carcinoma); assay: as above
Outline: as §1

[19] = test system: NALM-6 (B-Lymphoblastic Leukemia); assay: as above
Outline: as §1

[20] = test system: C3A (Hepatocellular Carcinoma); assay: as above
Outline: as §1

SMILES | Bliss excess [1] | Bliss excess [2] | Bliss excess [3] | Bliss excess [4] | Bliss excess [5] | Bliss excess [6] | Bliss excess [7] | Bliss excess [8] | Bliss excess [9] | combination Emax [10] | combination Emax [11] | combination Emax [12] | combination Emax [13] | combination Emax [14] | combination Emax [15] | combination Emax [16] | combination Emax [17] | combination Emax [18] | combination Emax [19] | combination Emax [20]
Cc1c2c(nn1C)CSCc1cc(n(C)n1)CSc1cc(c3ccccc3c1)OCCCc1c(C(=O)O)n(C)c3c-2c(Cl)ccc13 [AZD5991] + Cc1cc2ncnn2cc1Nc1ncc2c(n1)n(C1CCOCC1)c(=O)n2C [AZD7648] (first compound max 1 µM, 7x7, partner max 10 µM) | -0.0036 | 0.002 | -0.002 | 0.0725 | -0.095 | -0.0679 | -0.0957 | -0.0603 | 0.0308 | 0.515 | 0.223 | 0.172 | 0.995 | 0.67 | 0.196 | 0.333 | 0.315 | 0.988 | 0.471 | 0.248
CN(CCO)CC[C@H](CSc1ccccc1)Nc1ccc(S(=O)(=O)NC(=O)c2ccc(N3CCC([C@@H](O)c4ccccc4-c4ccc(Cl)cc4)CC3)cc2)cc1S(=O)(=O)C(F)(F)F [AZD4320] + CN(C)CCCOc1ccc(-c2ccc3ncc4c(c3c2)n(C2CCOCC2)c(=O)n4C)cn1 [AZD0156] (first compound max 1 µM, 7x7, partner max 1 µM) | -0.024 | -0.0391 | -0.0354 | -0.0211 | 0.0303 | -0.0709 | 0.0046 | -0.0116 | 0.0092 | 0.183 | 0.169 | 0.155 | 0.933 | 0.369 | 0.133 | 0.655 | 1 | 0.247 | 0.973 | 0.248
Cn1cnc2c(F)c(Nc3ccc(Br)cc3Cl)c(C(=O)NOCCO)cc21 [Selumetinib] + CCN(CCO)CCCOc1ccc2c(Nc3cc(CC(=O)Nc4cccc(F)c4)[nH]n3)ncnc2c1 [AZD2811] (first compound max 10 µM, 7x7, partner max 1 µM) | -0.0239 | -0.0184 | -0.0529 | -0.0053 | 0.0022 | 0.0816 | -0.0075 | 0.0059 | 0.193 | 0.623 | 0.715 | 0.168 | 0.411 | 0.383 | 0.294 | 0.519 | 0.21 | 0.804 | 0.836 | 0.494
Cc1c2c(nn1C)CSCc1cc(n(C)n1)CSc1cc(c3ccccc3c1)OCCCc1c(C(=O)O)n(C)c3c-2c(Cl)ccc13 [AZD5991] + C[C@@H]1COCCN1C2=NC(=NC(=C2)C3(CC3)[S@](=N)(=O)C)C4=C5C=CNC5=NC=C4 [AZD6738] (first compound max 1 µM, 7x7, partner max 10 µM) | -0.0221 | 0.0383 | 0.0442 | 0.0159 | 0.0241 | 0.0409 | 0.0482 | 0.0058 | 0.0243 | 0.752 | 0.836 | 0.814 | 0.999 | 0.919 | 0.283 | 0.546 | 0.638 | 0.98 | 0.895 | 0.437
CC(=O)Nc1cccc(-n2c(=O)n(C3CC3)c(=O)c3c(Nc4ccc(I)cc4F)n(C)c(=O)c(C)c32)c1 [Trametinib] + Cc1nc(-c2cn3c(n2)-c2ccc(-c4cnn(C(C)(C)C(N)=O)c4)cc2OCC3)n(C(C)C)n1 [Taselisib] (first compound max 1 µM, 7x7, partner max 10 µM) | 0.0194 | 0.0113 | 0.148 | 0.108 | 0.0704 | 0.0762 | 0.0096 | 0.117 | 0.24 | 0.88 | 0.981 | 0.227 | 0.212 | 0.994 | 0.626 | 0.868 | 0.439 | 0.591 | 0.689 | 0.903
CN(CCO)CC[C@H](CSc1ccccc1)Nc1ccc(S(=O)(=O)NC(=O)c2ccc(N3CCC([C@@H](O)c4ccccc4-c4ccc(Cl)cc4)CC3)cc2)cc1S(=O)(=O)C(F)(F)F [AZD4320] + C1CN(CCC1(C(=O)N[C@@H](CCO)C2=CC=C(C=C2)Cl)N)C3=NC=NC4=C3C=CN4 [Capivasertib] (first compound max 1 µM, 7x7, partner max 3 µM) | 0.0468 | -0.0728 | -0.0527 | 0.0157 | -0.0038 | -0.0571 | -0.0203 | -0.0179 | 0.0032 | 0.341 | 0.196 | 0.0543 | 0.899 | 0.686 | 0.143 | 0.376 | 1 | 0.713 | 0.983 | 0.292
Cn1cnc2c(F)c(Nc3ccc(Br)cc3Cl)c(C(=O)NOCCO)cc21 [Selumetinib] + CC(C)n1c(=O)n(C)c2cnc3cc(F)c(-c4ccc(OCCCN5CCCCC5)nc4)cc3c21 [AZD1390] (first compound max 10 µM, 7x7, partner max 0.3 µM) | -0.0497 | -0.0395 | -0.0627 | -0.0153 | -0.0002 | -0.0401 | -0.016 | -0.0227 | 0.0201 | 0.218 | 0.709 | 0.153 | 0.304 | 0.323 | 0.229 | 0.501 | 0.18 | 0.232 | 0.205 | 0.412
CS(=O)(=O)CCNCc1ccc(-c2ccc3ncnc(Nc4ccc(OCc5cccc(F)c5)c(Cl)c4)c3c2)o1 [Lapatinib] + C[C@@H](Oc1cc(-c2cnn(C3CCNCC3)c2)cnc1N)c1c(Cl)ccc(F)c1Cl [Crizotinib] (first compound max 10 µM, 7x7, partner max 10 µM) | -0.0553 | -0.023 | -0.077 | -0.0186 | 0.0668 | 0.0358 | -0.0529 | 0.0166 | -0.0459 | 0.774 | 0.942 | 0.931 | 0.953 | 1 | 0.313 | 0.828 | 0.812 | 0.954 | 0.959 | 0.951
CN(CCO)CC[C@H](CSc1ccccc1)Nc1ccc(S(=O)(=O)NC(=O)c2ccc(N3CCC([C@@H](O)c4ccccc4-c4ccc(Cl)cc4)CC3)cc2)cc1S(=O)(=O)C(F)(F)F [AZD4320] + Cc1cc2ncnn2cc1Nc1ncc2c(n1)n(C1CCOCC1)c(=O)n2C [AZD7648] (first compound max 1 µM, 7x7, partner max 10 µM) | -0.0018 | -0.0543 | -0.0345 | -0.0322 | -0.0266 | -0.0292 | 0.0276 | -0.0305 | 0.0178 | 0.258 | 0.149 | 0.0312 | 0.976 | 0.586 | 0.112 | 0.637 | 1 | 0.398 | 0.975 | 0.248
Cn1cnc2c(F)c(Nc3ccc(Br)cc3Cl)c(C(=O)NOCCO)cc21 [Selumetinib] + C=CCn1c(=O)c2cnc(Nc3ccc(N4CCN(C)CC4)cc3)nc2n1-c1cccc(C(C)(C)O)n1 [AZD1775] (first compound max 10 µM, partner max 1 µM) | -0.0491 | -0.0339 | -0.0439 | -0.0563 | -0.0355 | -0.0467 | -0.0464 | -0.0131 | 0.0719 | 0.485 | 0.889 | 0.926 | 0.793 | 0.503 | 0.346 | 0.577 | 0.32 | 0.739 | 0.98 | 0.777
COc1cccc(OCCCN)c1-c1cc(Nc2cnc(C#N)cn2)n[nH]1 [Prexasertib] + C=CCn1c(=O)c2cnc(Nc3ccc(N4CCN(C)CC4)cc3)nc2n1-c1cccc(C(C)(C)O)n1 [AZD1775] (first compound max 1 µM, partner max 1 µM) | 0.0653 | 0.0763 | -0.0145 | 0.0839 | 0.112 | 0.0323 | -0.0187 | 0.0316 | 0.0927 | 0.736 | 0.844 | 0.962 | 0.945 | 0.84 | 0.445 | 0.9 | 0.736 | 0.984 | 0.934 | 0.674
CC1(C)CCC(CN2CCN(c3ccc(C(=O)NS(=O)(=O)c4ccc(NCC5CCOCC5)c([N+](=O)[O-])c4)c(Oc4cnc5[nH]ccc5c4)c3)CC2)=C(c2ccc(Cl)cc2)C1 [Venetoclax] + Cn1cnc2c(F)c(Nc3ccc(Br)cc3Cl)c(C(=O)NOCCO)cc21 [Selumetinib] (first compound max 1 µM, 7x7, partner max 3 µM) | -0.0291 | -0.0159 | -0.0142 | 0.0014 | 0.0225 | -0.0515 | -0.0265 | -0.0001 | 0.16 | 0.166 | 0.64 | 0.097 | 0.914 | 0.341 | 0.225 | 0.38 | 0.572 | 0.214 | 0.908 | 0.434
Cc1c2c(nn1C)CSCc1cc(n(C)n1)CSc1cc(c3ccccc3c1)OCCCc1c(C(=O)O)n(C)c3c-2c(Cl)ccc13 [AZD5991] + CCN(CCO)CCCOc1ccc2c(Nc3cc(CC(=O)Nc4cccc(F)c4)[nH]n3)ncnc2c1 [AZD2811] (first compound max 1 µM, 7x7, partner max 1 µM) | -0.0457 | 0.0137 | -0.0148 | 0.0917 | 0.0492 | 0.0104 | 0.0028 | -0.0039 | 0.066 | 0.875 | 0.383 | 0.271 | 0.987 | 0.839 | 0.204 | 0.321 | 0.449 | 0.993 | 0.655 | 0.32
